# “And” between values parts separate entries of the source, which are not always exact repeats. Equal entries are not always repeated. Structures can show the parent of a compound that is named as a salt.
# Target: T1, human CTPS1 (Homo sapiens, UniProt P17812)
# T1 construct: purchased Proteros biostructures GmbH
# T1 sequence (P17812 1-591): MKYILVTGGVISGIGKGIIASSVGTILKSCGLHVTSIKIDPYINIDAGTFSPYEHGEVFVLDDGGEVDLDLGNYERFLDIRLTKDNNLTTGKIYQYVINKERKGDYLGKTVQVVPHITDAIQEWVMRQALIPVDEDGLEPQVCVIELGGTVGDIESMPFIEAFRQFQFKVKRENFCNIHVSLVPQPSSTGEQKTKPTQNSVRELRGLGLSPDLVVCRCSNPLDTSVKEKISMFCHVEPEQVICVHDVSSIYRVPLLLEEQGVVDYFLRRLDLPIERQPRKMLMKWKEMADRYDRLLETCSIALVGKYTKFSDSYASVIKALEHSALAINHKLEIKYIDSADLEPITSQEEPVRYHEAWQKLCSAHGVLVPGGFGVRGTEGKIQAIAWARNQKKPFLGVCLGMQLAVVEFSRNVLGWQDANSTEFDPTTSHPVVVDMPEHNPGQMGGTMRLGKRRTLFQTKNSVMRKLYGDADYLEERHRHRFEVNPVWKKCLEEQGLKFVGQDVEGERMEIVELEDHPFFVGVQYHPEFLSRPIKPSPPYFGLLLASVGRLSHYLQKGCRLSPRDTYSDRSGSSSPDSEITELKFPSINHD
# Assay: Human CTPS1 enzyme inhibition (ADP-Glo Max assay)
# Assay type: biochemical
# Details: Table 17, 25° C., read-out: CTPS1 (Human CTPS1 Enzyme Inhibition data grouped by potency range)
# Procedure, shortened: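 ADP-Glo Max luminescence detection of ATP-to-ADP conversion by the enzyme, in 50 mM Tris, 10 mM MgCl2, 0.01% Tween-20, pH 8.0, with 2 mM L-cysteine added fresh. Enzyme preincubated with compound 10 minutes at 25° C. Percentage inhibition calculated per compound concentration.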
row,Structure (SMILES),IC50
1,"CC(C)(C(=O)Nc1ncc(-c2cncc(C#N)c2)cn1)c1csc(NS(=O)(=O)C2CC2)n1 [T20, N-(5-(5-cyanopyridin-3-yl)pyrimidin-2-yl)-2-(2-(cyclopropanesulfonamido)thiazol-4-yl)-2-methylpropanamide]",100 to 1000 nM
2,CC(C)(C(=O)Nc1ccc(-c2cnccn2)c(F)c1)c1csc(NS(=O)(=O)C2CC2)n1 [T39],100 to 1000 nM
3,"CCC(C(=O)Nc1ccc(-c2cncc(Cl)c2)cc1)c1csc(NS(=O)(=O)C2CC2)n1 (racemic) [T8, N-(4-(5-chloropyridin-3-yl)phenyl)-2-(2-(cyclopropanesulfonamido)thiazol-4-yl)butanamide]",< 100 nM
4,O=C(Nc1ccc(-c2ccccc2)cc1)C1CCCc2sc(NS(=O)(=O)C3CC3)nc21 (stereo not drawn) [T83],1000 to 10000 nM
5,CC(C)(C(=O)Nc1ccc(-c2cccnc2)cc1Cl)c1csc(NS(=O)(=O)C2CC2)n1 [T41],100 to 1000 nM
6,CCC(C(=O)Nc1ccc(-c2cncc(OC(C)C)n2)cn1)c1csc(NS(=O)(=O)C2CC2)n1 (stereo not drawn) [T174],< 100 nM
7,"Cc1sc(NS(=O)(=O)C2CC2)nc1C(C)(C)C(=O)Nc1ccc(-c2cncc(C(F)(F)F)n2)cc1 [T17, 2-(2-(cyclopropanesulfonamido)-5-methylthiazol-4-yl)-2-methyl-N-(4-(6-(trifluoromethyl)pyrazin-2-yl)phenyl)propanamide]",100 to 1000 nM
8,"CCC(C(=O)Nc1ccc(-c2cccnc2)cc1)c1csc(NS(=O)(=O)C2CC2)n1 (single isomer, unassigned) [T7, 2-(2-(cyclopropanesulfonamido)thiazol-4-yl)-N-(4-(pyridin-3-yl)phenyl)butanamide.HCl]",< 100 nM
9,"CN(C)C(=O)c1cncc(-c2ccc(NC(=O)C(C)(C)c3csc(NS(=O)(=O)C4CC4)n3)cc2)n1 [T19, 6-(4-(2-(2-(cyclopropanesulfonamido)thiazol-4-yl)-2-methylpropanamido)phenyl)-N,N-dimethylpyrazine-2-carboxamide]",100 to 1000 nM
10,"CCC(C(=O)Nc1ccc(-c2cncc(OCC(F)(F)F)n2)cc1)c1csc(NS(=O)(=O)C2CC2)n1 (single isomer, unassigned) [T222]",100 to 1000 nM
11,"CC(C)C(C(=O)Nc1ccc(-c2cncnc2)cc1)c1csc(NS(=O)(=O)C2CC2)n1 (stereo not drawn) [T11, 2-(2-(cyclopropanesulfonamido)thiazol-4-yl)-3-methyl-N-(4-(pyrimidin-5-yl)phenyl)butanamide]",100 to 1000 nM
12,N#Cc1cncc(-c2ccc(NC(=O)C3CCc4sc(NS(=O)(=O)C5CC5)nc43)cc2)c1 (stereo not drawn) [T217],< 100 nM
13,CCC(C(=O)Nc1ccc(-c2cncc(OCC(F)(F)F)c2)cc1F)c1csc(NS(=O)(=O)C2CC2)n1 (stereo not drawn) [T212],< 100 nM
14,CCC(C(=O)Nc1ccc(-c2ccccc2)cn1)c1csc(NS(=O)(=O)C2CC2)n1 (stereo not drawn) [T181],100 to 1000 nM
15,"COc1cncc(-c2ccc(NC(=O)C(OC)c3csc(NS(=O)(=O)C4CC4)n3)cc2)n1 (single isomer, unassigned) [T107]",< 100 nM
16,CCC(C(=O)N(C)c1ccc(-c2cccnc2)cc1)c1csc(NS(=O)(=O)C2CC2)n1 (stereo not drawn) [T315],100 to 1000 nM
17,CCC(C(=O)Nc1ccc(-c2cncc(C(F)(F)F)n2)cc1)c1csc(NS(=O)(=O)C2CC2)n1 (stereo not drawn) [T73],< 100 nM
18,O=C(Nc1ccc(-c2cccnc2)cc1)C(F)(F)c1csc(NS(=O)(=O)C2CC2)n1 [T89],< 100 nM
19,CCOc1cncc(-c2ccc(NC(=O)C(CC)c3csc(NS(=O)(=O)C4CC4)n3)nc2)n1 (stereo not drawn) [T177],< 100 nM
20,CCCOc1cncc(-c2ccc(NC(=O)C(CC)c3csc(NS(=O)(=O)C4CC4)n3)nc2)n1 (stereo not drawn) [T173],< 100 nM
21,CCC(C(=O)Nc1ccc(-c2cncc(OCC(F)(F)F)c2)cc1)c1csc(NS(=O)(=O)C2CC2)n1 (stereo not drawn) [T211],< 100 nM and 100 to 1000 nM
22,"CC(C)C(C(=O)Nc1ccc(-c2cccnc2)cc1)c1csc(NS(=O)(=O)C2CC2)n1 (single isomer, unassigned) [T14, 2-(2-(cyclopropanesulfonamido)thiazol-4-yl)-3-methyl-N-(4-(pyridin-3-yl)phenyl)butanamide.HCl]",100 to 1000 nM
23,CCC(C(=O)Nc1ccc(-c2cncc(C(F)(F)F)c2)cc1)c1csc(NS(=O)(=O)C2CC2)n1 (stereo not drawn) [T193],< 100 nM
24,CC(C)(C(=O)Nc1ccc(-c2cccnc2)c(Cl)c1)c1csc(NS(=O)(=O)C2CC2)n1 [T153],100 to 1000 nM

# Next, values leading:
row,IC50,Structure (SMILES)
1,100 to 1000 nM,CCC(C(=O)N(C)c1ccc(-c2cncc(C#N)c2)cc1)c1csc(NS(=O)(=O)C2CC2)n1 (stereo not drawn) [T316]
2,100 to 1000 nM,CCOc1cncc(-c2ccc(NC(=O)C(C)(C)c3nc(NS(=O)(=O)C4CC4)sc3C)cc2)n1 [T317]

# Same assay, conditions: Table 18, additional potency data, 25° C., read-out: CTPS1 (Human CTPS1 Enzyme Inhibition data grouped by potency range)
row,Structure (SMILES),IC50
1,"COC(C(=O)Nc1ccc(-c2cncc(C(F)(F)F)n2)cc1F)c1csc(NS(=O)(=O)C2CC2)n1 (stereo not drawn) [T408, 2-(2-(cyclopropanesulfonamido)thiazol-4-yl)-N-(2-fluoro-4-(6-(trifluoromethyl)pyrazin-2-yl)phenyl)-2-methoxyacetamide]",< 100 nM
2,"COCCS(=O)(=O)Nc1nc(C(C)(C)C(=O)Nc2ccc(-c3cncc(C(F)(F)F)n3)cn2)cs1 [T332, 2-(2-((2-methoxyethyl)sulfonamido)thiazol-4-yl)-2-methyl-N-(5-(6-(trifluoromethyl)pyrazin-2-yl)pyridin-2-yl)propanamide]",100 to 1000 nM
3,"CC(C)c1cc(-c2cncc(C#N)c2)ccc1NC(=O)C(C)(C)c1csc(NS(=O)(=O)C2CC2)n1 [T360, N-(4-(5-cyanopyridin-3-yl)-2-isopropylphenyl)-2-(2-(cyclopropanesulfonamido)thiazol-4-yl)-2-methylpropanamide]",100 to 1000 nM
4,"CCC(C(=O)Nc1ccc(-c2cncc(C(C)(C)OC)n2)cc1)c1csc(NS(=O)(=O)C2CC2)n1 (stereo not drawn) [T406, 2-(2-(cyclopropanesulfonamido)thiazol-4-yl)-N-(4-(6-(2-methoxypropan-2-yl)pyrazin-2-yl)phenyl)butanamide]",100 to 1000 nM
5,CCOc1cncc(-c2ccc(NC(=O)C(OC)c3csc(NS(=O)(=O)C4CC4)n3)c(Cl)c2)n1 (stereo not drawn) [T450],< 100 nM
6,"CCOc1cncc(-c2ccc(NC(=O)C(C)(C)c3nc(NS(=O)(=O)C4CC4)sc3OC)cc2)n1 [T377, 2-(2-(cyclopropanesulfonamido)-5-methoxythiazol-4-yl)-N-(4-(6-ethoxypyrazin-2-yl)phenyl)-2-methylpropanamide]",100 to 1000 nM
7,COC(C(=O)Nc1ccc(-c2cncc(C(F)(F)F)c2)cc1F)c1csc(NS(=O)(=O)C2CC2)n1 (stereo not drawn) [T448],< 100 nM
8,"CCC(C(=O)Nc1ccc(-c2cncc(C(F)(F)F)c2)cc1F)c1csc(NS(=O)(=O)C2CC2)n1 (single isomer, unassigned) [T416, 2-(2-(cyclopropanesulfonamido)thiazol-4-yl)-N-(2-fluoro-4-(5-(trifluoromethyl)pyridin-3-yl)phenyl)butanamide]",< 100 nM
9,COC(C(=O)Nc1ccc(-c2cncc(C(F)(F)F)n2)cc1F)c1csc(NS(C)(=O)=O)n1 (stereo not drawn) [T452],< 100 nM
10,"CCC(C(=O)Nc1ccc(-c2cncc(C(F)(F)F)n2)cc1F)c1csc(NS(=O)(=O)C2CC2)n1 (single isomer, unassigned) [T458]",< 100 nM
11,"CCC(C(=O)Nc1ccc(-c2cncc(C#N)n2)cc1F)c1csc(NS(=O)(=O)C2CC2)n1 (stereo not drawn) [T404, N-(4-(6-cyanopyrazin-2-yl)-2-fluorophenyl)-2-(2-(cyclopropanesulfonamido)thiazol-4-yl)butanamide]",100 to 1000 nM
12,CCOc1cncc(-c2ccc(NC(=O)C(OC)c3csc(NS(C)(=O)=O)n3)cc2)n1 (stereo not drawn) [T455],< 100 nM
13,"CCS(=O)(=O)Nc1nc(C(C)(C)C(=O)Nc2ccc(-c3cncc(F)c3)cc2)cs1 [T385, 2-(2-(ethylsulfonamido)thiazol-4-yl)-N-(4-(5-fluoropyridin-3-yl)phenyl)-2-methylpropanamide]",< 100 nM
14,"CC(C)(C(=O)Nc1ccc(-c2cncc(Cl)c2)cc1)c1csc(NS(C)(=O)=O)n1 [T393, N-(4-(5-chloropyridin-3-yl)phenyl)-2-methyl-2-(2-(methylsulfonamido)thiazol-4-yl)propanamide]",100 to 1000 nM
15,CCOc1cncc(-c2ccc(NC(=O)C(OC)c3csc(NS(=O)(=O)C4CC4)n3)nc2)n1 (stereo not drawn) [T446],< 100 nM
16,"CCOc1cncc(-c2ccc(NC(=O)C(C)(C)c3csc(NS(=O)(=O)C4CC4)n3)c(C(F)(F)F)c2)n1 [T347, 2-(2-(cyclopropanesulfonamido)thiazol-4-yl)-N-(4-(6-ethoxypyrazin-2-yl)-2-(trifluoromethyl)phenyl)-2-methylpropanamide]",< 100 nM
17,"CCOc1cncc(-c2ccc(NC(=O)C(C)(C)c3csc(NS(=O)(=O)CC)n3)nc2)n1 [T382, N-(5-(6-ethoxypyrazin-2-yl)pyridin-2-yl)-2-(2-(ethylsulfonamido)thiazol-4-yl)-2-methylpropanamide]",< 100 nM
18,"Cc1cc(-c2cncc(Cl)c2)c(C)cc1NC(=O)C(C)(C)c1csc(NS(=O)(=O)C2CC2)n1 [T366, N-(4-(5-chloropyridin-3-yl)-2,5-dimethylphenyl)-2-(2-(cyclopropanesulfonamido)thiazol-4-yl)-2-methylpropanamide]",100 to 1000 nM
19,CCOc1cncc(-c2ccc(NC(=O)C(CC)c3csc(NS(=O)(=O)C4CC4)n3)c(OC)c2)n1 (stereo not drawn) [T443],< 100 nM
